Reference: patent US20240026300A1, “KIDNEY EXTRACELLULAR MATRIX-DERIVED SCAFFOLD FOR CULTURE AND TRANSPLANTATION OF KIDNEY ORGANOID AND METHOD OF PREPARING THE SAME” (CELLARTGEN INC., priority 2020, published 2024)

System: mouse kidney organoid
Test: Kidney fibrosis model by TGF-β treatment of kidney organoid
Assay type: cell-based
Description: A kidney fibrosis model was constructed using a kidney organoid cultured in the KEM hydrogel. To this end, kidney fibrosis was induced by treatment of a mouse kidney organoid with TGF-b. On day 9 of kidney organoid culture (subculture once on day 7 and additional culture for 2 days), the kidney organoids were treated with each concentration of TGF-β for 3 days and then analyzed on day 12. A kidney organoid not treated with TGF-β (NT, No treatment) was compared as a control group.

TGF-β
Acta2 and Colla1 (fibrosis markers) mRNA expression levels, qPCR (TGF-β for 3 days, analyzed day 12): increased in proportion to the increase in treatment concentration
kidney organoid morphology and growth (each concentration of TGF-β for 3 days, analyzed day 12): exhibited morphological changes and did not grow well
hydrogel and organoid appearance after TGF-β (organoid cultured in 7 mg/ml KEM hydrogel): the KEM hydrogel contracted and fibrosis-induced organoids agglomerated in a mass
Vimentin, COL1, α-SMA (fibrosis markers) expression, immunostaining (organoids in Matrigel and KEM scaffolds): expression of all fibrosis markers was increased
